Earlier results in patent US9322040B2, “Pseudonocardia sp. and method for preparing deoxynyboquinone by utilizing same” (SOUTH CHINA SEA INSTITUTE OF OCEANOLOGY, CHINESE ACADEMY OF …, priority 2011, dated 2016).

Test system: cancer cell

## Cc1cc(=O)[nH]c2c1C(=O)c1c(C)cc(=O)n(C)c1C2=O [Deoxynyboquinone]
  cytotoxin activity: significant cytotoxin activity
Anoxic conditions
  activity under anoxic conditions: stronger activity can be still shown under anoxic conditions

## Cc1cc(=O)n(C)c2c1C(=O)c1c(C)cc(=O)n(C)c1C2=O [SCH 538415, reference compound]
Compared with the activity of Deoxynyboquinone
  activity relative to Deoxynyboquinone: 10 times weaker
